“And” between values parts separate entries of the source, which are not always exact repeats. Equal values may be shown once. Toxic doses and inconclusive results are not listed.
Test system: P388 leukemia ip, CD2F1 mice, survival T/C
Assay: NCI In Vivo Anticancer Drug Screen. Data for tumor model P388 Leukemia (intraperitoneal) in CD2F1 (CDF1) mice
Settings: endpoint: median survival time, higher = longer survival
Experimental: The antitumor activity of compounds was measured in mice bearing transplantable tumors. Survival or tumor size were measured and the results are expressed as the measurement made in the treated group (T) divided by the measurement made in the vehicle treated control group (C). The tumor model used in this assay is P388 Leukemia (intraperitoneal) in CD2F1 (CDF1) mice

[1] = dose: 100.0 mg/kg/injection, schedule: Q01DX001 (ip), vehicle: saline with Tween-80
[2] = dose: 200.0 mg/kg/injection, schedule: Q01DX001 (ip), vehicle: saline with Tween-80
[3] = dose: 400.0 mg/kg/injection, schedule: Q01DX001 (ip), vehicle: saline with Tween-80
[4] = dose: 50.0 mg/kg/injection, schedule: Q01DX009 (ip), vehicle: Klucel (hydroxypropylcellulose) (HPC)
[5] = dose: 100.0 mg/kg/injection, schedule: Q01DX009 (ip), vehicle: Klucel (hydroxypropylcellulose) (HPC)
[6] = dose: 200.0 mg/kg/injection, schedule: Q01DX009 (ip), vehicle: Klucel (hydroxypropylcellulose) (HPC)
[7] = dose: 50.0 mg/kg/injection, schedule: Q01DX005 (ip), vehicle: Klucel (hydroxypropylcellulose) (HPC)
[8] = dose: 100.0 mg/kg/injection, schedule: Q01DX005 (ip), vehicle: Klucel (hydroxypropylcellulose) (HPC)
[9] = dose: 200.0 mg/kg/injection, schedule: Q01DX005 (ip), vehicle: Klucel (hydroxypropylcellulose) (HPC)
[10] = dose: 60.0 mg/kg/injection, schedule: Q01DX005 (ip), vehicle: saline with Tween-80
[11] = dose: 120.0 mg/kg/injection, schedule: Q01DX005 (ip), vehicle: saline with Tween-80
[12] = dose: 240.0 mg/kg/injection, schedule: Q01DX005 (ip), vehicle: saline with Tween-80
[13] = dose: 100.0 mg/kg/injection, schedule: Q01DX009 (ip), vehicle: saline with Tween-80
[14] = dose: 200.0 mg/kg/injection, schedule: Q01DX009 (ip), vehicle: saline with Tween-80
[15] = dose: 400.0 mg/kg/injection, schedule: Q01DX009 (ip), vehicle: saline with Tween-80
[16] = dose: 50.0 mg/kg/injection, schedule: Q01DX009 (ip), vehicle: saline with Tween-80
[17] = dose: 25.0 mg/kg/injection, schedule: Q01DX009 (ip), vehicle: saline with Tween-80
[18] = dose: 100.0 mg/kg/injection, schedule: Q04DX003 (ip), vehicle: saline
[19] = dose: 200.0 mg/kg/injection, schedule: Q04DX003 (ip), vehicle: saline

CN(C)c1ccc(/C=C/c2ccnc3c2ccc2ccccc23)cc1 was tested, and the T/C (dose: 37.5 mg/kg/injection, schedule: Q04DX003 (ip), vehicle: Klucel (hydroxypropylcellulose) (HPC)) was 108 % of control, the T/C (dose: 50.0 mg/kg/injection, schedule: Q01DX001 (ip), vehicle: saline with Tween-80) was 106 % of control and the T/C (dose: 75.0 mg/kg/injection, schedule: Q04DX003 (ip), vehicle: Klucel (hydroxypropylcellulose) (HPC)) was 89 % of control. For the same compound, the T/C [1] was 93 % of control, the T/C (dose: 150.0 mg/kg/injection, schedule: Q04DX003 (ip), vehicle: Klucel (hydroxypropylcellulose) (HPC)) was 103 % of control and the T/C [2] was 91 % of control. The T/C (dose: 300.0 mg/kg/injection, schedule: Q04DX003 (ip), vehicle: Klucel (hydroxypropylcellulose) (HPC)) was 96 % of control and the T/C [3] was 91 % of control.

In the case of O=C1CSC(=S)N1c1cccc(Cl)c1, the T/C [4] is reported as 107 % of control and 122 % of control, the T/C [5] is reported as 118 % of control and 121 % of control and the T/C [6] is reported as 111 % of control. The T/C (dose: 400.0 mg/kg/injection, schedule: Q01DX009 (ip), vehicle: Klucel (hydroxypropylcellulose) (HPC)) was 100 % of control.

For CC(C)CC(NCCC#N)C(=O)O (stereo not drawn), the T/C [7] was 105 % of control, the T/C [8] was 105 % of control and the T/C [9] was 108 % of control.

COc1ccc(/C=C2\SC(=O)N(C)C2=O)cc1OC was tested, and the T/C [7] was 88 % of control and the T/C [8] was 89 % of control.

CCN(CC)C(=O)N(O)C1CCCCC1 was tested, and the T/C [10] was 105 % of control, the T/C [11] was 97 % of control and the T/C [12] was 103 % of control.

In the case of COc1cc(O)c(C(C)=O)c2c1C=CC(C)(C)O2, the T/C (dose: 50.0 mg/kg/injection, schedule: Q01DX005 (ip), vehicle: saline with Tween-80) is reported as 102 % of control, the T/C (dose: 100.0 mg/kg/injection, schedule: Q01DX005 (ip), vehicle: saline with Tween-80) is reported as 105 % of control and the T/C (dose: 200.0 mg/kg/injection, schedule: Q01DX005 (ip), vehicle: saline with Tween-80) is reported as 100 % of control.

With CCCC(C)C1(CC(C)O)C(=O)NC(=O)NC1=O (stereo not drawn) the T/C [4] was 104 % of control, the T/C [5] was 104 % of control and the T/C [6] was 100 % of control.

For CC(C)C1=CC2=C(CC1)C1(C)CCCC(C)(C(=O)O)C1CC2 (stereo not drawn), the T/C [13] was 100 % of control, the T/C [14] was 100 % of control and the T/C [15] was 100 % of control.

With O=C(COc1ccc(Cl)cc1)NN1CCCCCC1 the T/C (dose: 7.5 mg/kg/injection, schedule: Q01DX005 (ip), vehicle: Klucel (hydroxypropylcellulose) (HPC)) was 99 % of control and the T/C (dose: 15.0 mg/kg/injection, schedule: Q01DX005 (ip), vehicle: Klucel (hydroxypropylcellulose) (HPC)) was 98 % of control.

For COC(=O)c1cc2c(s1)C(=O)c1ccccc1-2, the T/C [16] was 91 % of control, the T/C [13] was 103 % of control and the T/C [14] was 100 % of control.

In the case of O=C1OCCSCCOCCSCCOC(=O)c2cncc1c2, the T/C (dose: 100.0 mg/kg/injection, schedule: Q01DX001 (ip), vehicle: Klucel (hydroxypropylcellulose) (HPC)) is reported as 99 % of control, the T/C (dose: 200.0 mg/kg/injection, schedule: Q01DX001 (ip), vehicle: Klucel (hydroxypropylcellulose) (HPC)) is reported as 113 % of control and the T/C (dose: 400.0 mg/kg/injection, schedule: Q01DX001 (ip), vehicle: Klucel (hydroxypropylcellulose) (HPC)) is reported as 109 % of control.

For CC(C)c1nnc(NC(=O)CSC(=S)N2CCOCC2)s1, the T/C [10] was 106 % of control, the T/C [11] was 98 % of control and the T/C [12] was 97 % of control.

For O=S(=O)(Nc1ccc(CCc2ccc(NS(=O)(=O)c3ccccc3)cc2)cc1)c1ccccc1, the T/C [1] was 95 % of control, the T/C [2] was 91 % of control and the T/C [3] was 91 % of control.

O=C(Nc1cccc2ccccc12)[C@H]1C[C@H]2C=C[C@@H]1C2 was tested, and the T/C (dose: 100.0 mg/kg/injection, schedule: Q04DX003 (ip), vehicle: saline with Tween-80) was 95 % of control, the T/C (dose: 200.0 mg/kg/injection, schedule: Q04DX003 (ip), vehicle: saline with Tween-80) was 90 % of control and the T/C (dose: 400.0 mg/kg/injection, schedule: Q04DX003 (ip), vehicle: saline with Tween-80) was 113 % of control.

In the case of CC(=O)OCN1C(=O)C2C3C=CC(C2C1=O)C1C2C(=O)N(COC(C)=O)C(=O)C2C31 (stereo not drawn), the T/C [17] is reported as 117 % of control, the T/C [16] is reported as 115 % of control and the T/C [14] is reported as 180 % of control. For the same compound, the T/C [15] was 208 % of control.

O/N=c1/ccn(O)c2ccccc12 was tested, and the T/C (dose: 0.78 mg/kg/injection, schedule: Q01DX009 (ip), vehicle: saline) was 161 % of control, the T/C (dose: 1.56 mg/kg/injection, schedule: Q01DX009 (ip), vehicle: saline) was 171 % of control and the T/C (dose: 3.12 mg/kg/injection, schedule: Q01DX009 (ip), vehicle: saline) was 204 % of control.

In the case of N#CCCNc1ccc(NCCC#N)c2c1C(=O)c1c(O)ccc(O)c1C2=O, the T/C (dose: 25.0 mg/kg/injection, schedule: Q04DX002 (ip), vehicle: saline with Tween-80) is reported as 103 % of control, the T/C (dose: 50.0 mg/kg/injection, schedule: Q04DX002 (ip), vehicle: saline with Tween-80) is reported as 94 % of control and the T/C (dose: 100.0 mg/kg/injection, schedule: Q04DX002 (ip), vehicle: saline with Tween-80) is reported as 101 % of control. For the same compound, the T/C (dose: 200.0 mg/kg/injection, schedule: Q04DX002 (ip), vehicle: saline with Tween-80) was 104 % of control.

C1=Nc2ccccc2OCCOc2ccccc2N=Cc2ccccc2NCCNc2ccccc21 was tested, and the T/C [18] was 97 % of control and the T/C [19] was 100 % of control.

For NC1=NCCCN1, the T/C (dose: 3.0 mg/kg/injection, schedule: Q01DX009 (ip), vehicle: saline) was 95 % of control, the T/C (dose: 6.0 mg/kg/injection, schedule: Q01DX009 (ip), vehicle: saline) was 104 % of control and the T/C (dose: 12.0 mg/kg/injection, schedule: Q01DX009 (ip), vehicle: saline) was 90 % of control.

With COc1ccc(CC(C#N)c2ccccc2)cc1 (stereo not drawn) the T/C (dose: 25.0 mg/kg/injection, schedule: Q04DX003 (ip), vehicle: saline) was 99 % of control, the T/C (dose: 50.0 mg/kg/injection, schedule: Q04DX003 (ip), vehicle: saline) was 104 % of control and the T/C [18] was 103 % of control. The T/C [19] was 99 % of control.

With Cc1c(C#N)c2n(c1C)CC(=O)N2 the T/C [10] was 87 % of control and the T/C [11] was 95 % of control.

COC(=O)/C=C1\CC(C)C2=C(N1)SCC2=O (stereo not drawn) was tested, and the T/C [7] was 105 % of control, the T/C [8] was 105 % of control and the T/C [9] was 100 % of control.

For O=C(O)c1ccc2c(c1Sc1ccccc1)C(=O)c1ccccc1C2=O, the T/C (dose: 60.0 mg/kg/injection, schedule: Q01DX005 (ip), vehicle: Klucel (hydroxypropylcellulose) (HPC)) was 110 % of control and the T/C (dose: 120.0 mg/kg/injection, schedule: Q01DX005 (ip), vehicle: Klucel (hydroxypropylcellulose) (HPC)) was 107 % of control.

For O=C1C(Cl)=C(Cl)C(=O)C2=C1C1c3ccccc3C2c2ccccc21, the T/C (dose: 100.0 mg/kg/injection, schedule: Q01DX009 (ip), vehicle: saline sonified) was 105 % of control, the T/C (dose: 200.0 mg/kg/injection, schedule: Q01DX009 (ip), vehicle: saline sonified) was 110 % of control and the T/C (dose: 400.0 mg/kg/injection, schedule: Q01DX009 (ip), vehicle: saline sonified) was 100 % of control.

In the case of S=C1SCN(c2ccc(Br)cc2)CN1c1ccc2[nH]c(=S)sc2c1, the T/C (dose: 6.25 mg/kg/injection, schedule: Q01DX009 (ip), vehicle: Klucel (hydroxypropylcellulose) (HPC)) is reported as 106 % of control, the T/C (dose: 12.5 mg/kg/injection, schedule: Q01DX009 (ip), vehicle: Klucel (hydroxypropylcellulose) (HPC)) is reported as 113 % of control and the T/C (dose: 25.0 mg/kg/injection, schedule: Q01DX009 (ip), vehicle: Klucel (hydroxypropylcellulose) (HPC)) is reported as 106 % of control.

In the case of COC1C=COC2(C)Oc3c(C)c(O)c4c(O)c(c(C5SCCS5)c(O)c4c3C2=O)NC(=O)/C(C)=C\C=CC(C)C(O)C(C)C(O)C(C)C(OC(C)=O)C1C (stereo not drawn), the T/C [17] is reported as 100 % of control and 92 % of control, the T/C [16] is reported as 105 % of control and 106 % of control and 92 % of control and the T/C [13] is reported as 100 % of control and 108 % of control. For the same compound, the T/C [14] was 109 % of control and 111 % of control and 115 % of control.

For O=C(Cn1c(=O)cc(Nc2ccccc2)c2ccccc21)Nc1ccccc1, the T/C [1] was 94 % of control, the T/C [2] was 94 % of control and the T/C [3] was 94 % of control.

In the case of Cc1csc(Cl)c1NC1=NCCN1, the T/C (dose: 50.0 mg/kg/injection, schedule: Q01DX005 (ip), vehicle: saline) is reported as 104 % of control and the T/C (dose: 100.0 mg/kg/injection, schedule: Q01DX005 (ip), vehicle: saline) is reported as 107 % of control.

Reference: PubChem BioAssay AID330 (DTP/NCI, 2004)
